For 22 molecules, IC50 results are on record in patent publication US20180237441A1, “Chemical Compounds” (GlaxoSmithKline Intellectual Property (No.2) Limited, priority 2015, published 2018).

SMILES strings stand for the structures.

One assay concerns the target T1, PERK (Homo sapiens, UniProt Q9NZJ5).
T1 sequence (Q9NZJ5 30-1116): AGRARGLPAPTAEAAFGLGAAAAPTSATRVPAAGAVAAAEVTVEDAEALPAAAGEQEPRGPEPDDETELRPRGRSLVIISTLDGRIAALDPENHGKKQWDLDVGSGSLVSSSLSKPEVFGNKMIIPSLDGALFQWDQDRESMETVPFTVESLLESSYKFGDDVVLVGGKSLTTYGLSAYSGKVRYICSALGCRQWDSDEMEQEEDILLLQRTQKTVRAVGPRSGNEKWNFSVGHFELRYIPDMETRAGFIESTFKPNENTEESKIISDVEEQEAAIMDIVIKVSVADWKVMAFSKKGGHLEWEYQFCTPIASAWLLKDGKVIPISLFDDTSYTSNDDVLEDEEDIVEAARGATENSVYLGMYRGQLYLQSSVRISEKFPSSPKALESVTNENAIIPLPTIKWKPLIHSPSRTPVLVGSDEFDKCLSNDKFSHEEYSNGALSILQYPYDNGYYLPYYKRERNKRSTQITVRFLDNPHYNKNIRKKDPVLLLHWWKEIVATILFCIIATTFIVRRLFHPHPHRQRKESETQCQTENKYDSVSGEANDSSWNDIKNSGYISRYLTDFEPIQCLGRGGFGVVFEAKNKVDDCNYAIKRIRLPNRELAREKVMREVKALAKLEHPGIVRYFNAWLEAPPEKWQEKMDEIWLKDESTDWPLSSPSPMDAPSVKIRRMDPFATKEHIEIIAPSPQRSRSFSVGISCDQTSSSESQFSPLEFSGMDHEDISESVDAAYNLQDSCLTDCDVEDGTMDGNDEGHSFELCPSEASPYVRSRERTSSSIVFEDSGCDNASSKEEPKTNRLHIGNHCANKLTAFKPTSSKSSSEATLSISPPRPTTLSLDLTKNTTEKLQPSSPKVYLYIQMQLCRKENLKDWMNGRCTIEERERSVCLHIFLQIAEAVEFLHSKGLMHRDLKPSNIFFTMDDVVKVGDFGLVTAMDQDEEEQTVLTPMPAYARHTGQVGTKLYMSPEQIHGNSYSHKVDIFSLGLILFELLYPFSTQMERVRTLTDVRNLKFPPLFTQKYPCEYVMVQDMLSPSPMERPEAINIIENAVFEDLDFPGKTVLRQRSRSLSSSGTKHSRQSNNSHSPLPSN
Briefly: PERK enzyme assay (HTRF). The format is biochemical. The note with it: 500 μM ATP; at least one experimental run; read-out: PERK Enzyme (500 μM ATP) IC50. The method, boiled down:
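GST-PERK (0.75 nM final) pre-incubated 30–60 min with compound (≤1% DMSO) in HEPES pH 7.5/CHAPS/MgCl2/DTT, then 500 μM ATP and 40 nM biotin-eIF2α added for 60 min. EDTA quench; HTRF detection of phospho-eIF2α (Eu anti-rabbit/streptavidin-APC) read after 2 h; IC50 from concentration series.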
A general note: Time-resolved FRET reads energy transfer from a long-lived donor to a nearby acceptor.
As to `CCN1C(=O)N(c2ccc(-c3cn(C)c4ncnc(N)c34)c(F)c2)CC1c1cc(F)ccc1F` (single isomer, unassigned) [Example 2, 1-(4-(4-amino-7-methyl-7H-pyrrolo[2,3-d]pyrimidin-5-yl)-3-fluorophenyl)-4-(2,5-difluorophenyl)-3-ethylimidazolidin-2-one], the IC50 came out at 0.0774 µM. Consider `CC(C)CN1C(=O)N(c2ccc(-c3cn(C)c4ncnc(N)c34)c(F)c2)CC1c1cc(F)ccc1F` (stereo not shown) [Example 14, 1-(4-(4-amino-7-methyl-7H-pyrrolo[2,3-d]pyrimidin-5-yl)-3-fluorophenyl)-4-(2,5-difluorophenyl)-3-isobutylimidazolidin-2-one], for which the IC50 stood at 0.903 µM. Same read-out and setting: the same measure for `CN1C(=O)N(c2ccc(-c3cn(C)c4ncnc(N)c34)c(F)c2)CC1c1cc(F)cc(F)c1` (stereo not shown) [Example 25, 1-(4-(4-amino-7-methyl-7H-pyrrolo[2,3-d]pyrimidin-5-yl)-3-fluorophenyl)-4-(3,5-difluorophenyl)-3-methylimidazolidin-2-one]: 0.0742 µM.

The same assay, now with this note: PERK Enzyme (500 μM ATP) IC50; at least one experimental run; read-out: PERK Activity.
As for `Cc1nc(C2CN(c3ccc(-c4cn(C)c5ncnc(N)c45)c(F)c3)C(=O)N2C)ccc1F` (stereo not shown) [Example 112, 1-(4-(4-amino-7-methyl-7H-pyrrolo[2,3-d]pyrimidin-5-yl)-3-fluorophenyl)-4-(5-fluoro-6-methylpyridin-2-yl)-3-methylimidazolidin-2-one], the IC50 was in the range of 0.1 to 1 µM. Still for that read-out and setting: for `CN1C(=O)N(c2ccc(-c3cn(C4CC4)c4ncnc(N)c34)c(F)c2)CC1c1cc(F)c(F)cc1F` (single isomer, unassigned) [Example 161, 1-(4-(4-amino-7-cyclopropyl-7H-pyrrolo[2,3-d]pyrimidin-5-yl)-3-fluorophenyl)-3-methyl-4-(2,4,5-trifluorophenyl)imidazolidin-2-one] the value was < 0.1 µM; for `CCN1C(=O)N(c2ccc(-c3cn(C)c4ncnc(N)c34)c(F)c2)CC1c1cc(F)ccc1F` (single isomer, unassigned) [Example 2, 1-(4-(4-amino-7-methyl-7H-pyrrolo[2,3-d]pyrimidin-5-yl)-3-fluorophenyl)-4-(2,5-difluorophenyl)-3-ethylimidazolidin-2-one], < 0.1 µM. On the same count and under the same terms, the same measure for `CCN1C(=O)N(c2ccc(-c3cn(C4CC4)c4ncnc(N)c34)c(F)c2)CC1c1cc(F)cc(F)c1` (single isomer, unassigned) [Example 174, 1-(4-(4-amino-7-cyclopropyl-7H-pyrrolo[2,3-d]pyrimidin-5-yl)-3-fluorophenyl)-4-(3,5-difluorophenyl)-3-ethylimidazolidin-2-one]: < 0.1 µM.

With `CCN1C(=O)N(c2ccc(-c3cn(C4CC4)c4ncnc(N)c34)c(F)c2)CC1c1cc(F)cc(F)c1` (stereo not shown) [Example 170, 1-(4-(4-amino-7-cyclopropyl-7H-pyrrolo[2,3-d]pyrimidin-5-yl)-3-fluorophenyl)-4-(3,5-difluorophenyl)-3-ethylimidazolidin-2-one], the IC50 is < 0.1 µM. Take `CN1C(=O)N(c2ccc(-c3cn(C4CC4)c4ncnc(N)c34)c(F)c2)CC1c1cccc(F)c1` (single isomer, unassigned) [Example 125, 1-(4-(4-amino-7-cyclopropyl-7H-pyrrolo[2,3-d]pyrimidin-5-yl)-3-fluorophenyl)-4-(3-fluorophenyl)-3-methylimidazolidin-2-one]: the IC50 was < 0.1 µM.

Consider `Cc1nc(N)c2c(-c3ccc(N4CC(c5ccc(Cl)nc5)N(C)C4=O)cc3F)cn(C)c2n1` (stereo not shown) [Example 135, 1-(4-(4-amino-2,7-dimethyl-7H-pyrrolo[2,3-d]pyrimidin-5-yl)-3-fluorophenyl)-4-(6-chloropyridin-3-yl)-3-methylimidazolidin-2-one], for which the IC50 is < 0.1 µM.

For the molecule `CN1C(=O)N(c2ccc(-c3cn(C4CC4)c4ncnc(N)c34)c(F)c2)CC1c1cc(F)cc(F)c1F` (single isomer, unassigned) [Example 143, 1-(4-(4-amino-7-cyclopropyl-7H-pyrrolo[2,3-d]pyrimidin-5-yl)-3-fluorophenyl)-3-methyl-4-(2,3,5-trifluorophenyl)imidazolidin-2-one], the IC50 fell in the range of 0.1 to 1 µM.

As to `CN1C(=O)N(c2ccc(-c3cn(C)c4ncnc(N)c34)c(F)c2)CC1c1cc(F)ccc1F` (single isomer, unassigned) [Example 151, 1-(4-(4-amino-7-methyl-7H-pyrrolo[2,3-d]pyrimidin-5-yl)-3-fluorophenyl)-4-(2,5-difluorophenyl)-3-methylimidazolidin-2-one], the IC50 was 0.1 to 1 µM. The same measure, in the same setting: for `CN1C(=O)N(c2ccc(-c3cn(C4CC4)c4ncnc(N)c34)c(Cl)c2)CC1c1cc(F)cc(F)c1` (stereo not shown) [Example 122, 1-(4-(4-amino-7-cyclopropyl-7H-pyrrolo[2,3-d]pyrimidin-5-yl)-3-chlorophenyl)-4-(3,5-difluorophenyl)-3-methylimidazolidin-2-one] the value was < 0.1 µM; for `Cc1nc(N)c2c(-c3ccc(N4CC(C5CCCCC5)N(C)C4=O)cc3F)cn(C)c2n1` (single isomer, unassigned) [Example 61, 1-(4-(4-amino-2,7-dimethyl-7H-pyrrolo[2,3-d]pyrimidin-5-yl)-3-fluorophenyl)-4-cyclohexyl-3-methylimidazolidin-2-one], 0.1 to 1 µM. On the same count and under the same terms, the same measure for `CC(C)CN1C(=O)N(c2ccc(-c3cn(C)c4ncnc(N)c34)c(F)c2)CC1c1cc(F)ccc1F` (stereo not shown) [Example 14, 1-(4-(4-amino-7-methyl-7H-pyrrolo[2,3-d]pyrimidin-5-yl)-3-fluorophenyl)-4-(2,5-difluorophenyl)-3-isobutylimidazolidin-2-one]: 0.1 to 1 µM; for `Cc1nc(N)c2c(-c3ccc(N4CC(c5ccc(F)cc5F)N(C)C4=O)cc3F)cn(C)c2n1` (stereo not shown) [Example 65, 1-(4-(4-amino-2,7-dimethyl-7H-pyrrolo[2,3-d]pyrimidin-5-yl)-3-fluorophenyl)-4-(2,4-difluorophenyl)-3-methylimidazolidin-2-one]: 0.1 to 1 µM; for `Cc1c(-c2ccc(N3CC(c4ccc(F)cc4F)N(C)C3=O)cc2F)c2c(N)ncnc2n1C` (stereo not shown) [Example 94, 1-(4-(4-amino-6,7-dimethyl-7H-pyrrolo[2,3-d]pyrimidin-5-yl)-3-fluorophenyl)-4-(2,4-difluorophenyl)-3-methylimidazolidin-2-one]: 0.1 to 1 µM. Same read-out and setting: for `CCN1C(=O)N(c2ccc(-c3csc4ncnc(N)c34)c(F)c2)CC1c1cc(F)ccc1F` (stereo not shown) [Example 42, 1-(4-(4-aminothieno[2,3-d]pyrimidin-5-yl)-3-fluorophenyl)-4-(2,5-difluorophenyl)-3-ethylimidazolidin-2-one] the value was 0.1 to 1 µM; for `CCN1C(=O)N(c2ccc(-c3cn(C4CC4)c4ncnc(N)c34)c(F)c2)CC1c1cc(F)ccc1F` (single isomer, unassigned) [Example 124, 1-(4-(4-amino-7-cyclopropyl-7H-pyrrolo[2,3-d]pyrimidin-5-yl)-3-fluorophenyl)-4-(2,5-difluorophenyl)-3-ethylimidazolidin-2-one], < 0.1 µM; for `CCN1C(=O)N(c2ccc(-c3cn(C)c4ncnc(N)c34)c(F)c2)CC1c1cc(C2CC2)ccc1F` (stereo not shown) [Example 48, 1-(4-(4-amino-7-methyl-7H-pyrrolo[2,3-d]pyrimidin-5-yl)-3-fluorophenyl)-4-(5-cyclopropyl-2-fluorophenyl)-3-ethylimidazolidin-2-one], 0.1 to 1 µM. For `CCN1C(=O)N(c2ccc(-c3cn(C)c4ncnc(N)c34)c(F)c2)CC1c1ccc(F)c(F)c1` (stereo not shown) [Example 97, 1-(4-(4-amino-7-methyl-7H-pyrrolo[2,3-d]pyrimidin-5-yl)-3-fluorophenyl)-4-(3,4-difluorophenyl)-3-ethylimidazolidin-2-one], the IC50 was < 0.1 µM. Turning to `CN1C(=O)N(c2ccc(-c3cn(C)c4ncnc(N)c34)c(F)c2)CC1c1cc(F)cc(F)c1` (stereo not shown) [Example 25, 1-(4-(4-amino-7-methyl-7H-pyrrolo[2,3-d]pyrimidin-5-yl)-3-fluorophenyl)-4-(3,5-difluorophenyl)-3-methylimidazolidin-2-one], the IC50 was < 0.1 µM. On the same count and under the same terms, for `CN1C(=O)N(c2ccc(-c3cn(C4CC4)c4ncnc(N)c34)c(F)c2)CC1c1ccc(F)c(F)c1` (single isomer, unassigned) [Example 117, 1-(4-(4-amino-7-cyclopropyl-7H-pyrrolo[2,3-d]pyrimidin-5-yl)-3-fluorophenyl)-4-(3,4-difluorophenyl)-3-methylimidazolidin-2-one] the value was 0.1 to 1 µM; for `Cn1cc(-c2ccc(N3CC(c4cc(F)cc(F)c4)CC3=O)cc2F)c2c(N)ncnc21` (stereo not shown) [Example 4, 1-(4-(4-Amino-7-methyl-7H-pyrrolo[2,3-d]pyrimidin-5-yl)-3-fluorophenyl)-4-(3,5-difluorophenyl)pyrrolidin-2-one], 0.1 to 1 µM. On the same count and under the same terms, the same measure for `CN1C(=O)N(c2ccc(-c3cn(C)c4ncnc(N)c34)c(F)c2)CC1c1cc(F)c(F)cc1F` (stereo not shown) [Example 156, 1-(4-(4-amino-7-methyl-7H-pyrrolo[2,3-d]pyrimidin-5-yl)-3-fluorophenyl)-3-methyl-4-(2,4,5-trifluorophenyl)imidazolidin-2-one]: < 0.1 µM.
